We go through four compounds from patent US20250002487A1, “HETEROCYCLIC COMPOUNDS AND USES THEREOF” (Ventus Therapeutics U.S., Inc., priority 2021, published 2025).

Each structure is given as a SMILES string.

This assay deals with human-cGAS (h-cGAS) (Homo sapiens, UniProt Q8N884). Briefly: hcGAS Kinase-Glo Assay. The class given is biochemical. As to conditions: 40 nM h-cGAS, 100 μM ATP, 100 μM GTP, 25 nM dsDNA, 3 h incubation, read-out: hcGAS potency IC50. The method, boiled down: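 IC50 values come from a luminescence-based Kinase-Glo measurement on human cGAS. Conditions follow the Lama et al. 2019 method with minor modifications.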
human-cGAS (h-cGAS), sequence (Q8N884 whole entry): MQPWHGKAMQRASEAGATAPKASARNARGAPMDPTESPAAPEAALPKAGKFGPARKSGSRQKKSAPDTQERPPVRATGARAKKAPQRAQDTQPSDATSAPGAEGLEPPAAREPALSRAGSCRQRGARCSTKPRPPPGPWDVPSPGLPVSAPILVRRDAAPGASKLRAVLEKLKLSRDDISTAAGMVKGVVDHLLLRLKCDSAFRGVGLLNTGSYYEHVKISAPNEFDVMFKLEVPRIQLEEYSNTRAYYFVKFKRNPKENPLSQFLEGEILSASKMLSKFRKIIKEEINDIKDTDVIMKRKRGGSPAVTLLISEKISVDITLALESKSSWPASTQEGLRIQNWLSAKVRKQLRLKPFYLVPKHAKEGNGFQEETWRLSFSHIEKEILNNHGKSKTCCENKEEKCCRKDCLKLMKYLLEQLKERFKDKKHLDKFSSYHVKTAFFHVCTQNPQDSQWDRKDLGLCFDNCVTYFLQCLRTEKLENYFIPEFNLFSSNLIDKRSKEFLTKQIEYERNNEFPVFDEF
Background: In Kinase-Glo more light means more ATP remaining.
Regarding `COc1ccc2c(C(=O)Nc3nnc(SC)s3)onc2c1` [Compound 231, 6-methoxy-N-[5-(methylsulfanyl)-1,3,4-thiadiazol-2-yl]-2,1-benzoxazole-3-carboxamide], the IC50 (in general, the concentration that inhibits the measured activity by half) was in the range of 100 to 500 nM.

For the compound `CSc1nnc(NC(=O)c2nc(Nc3ccccc3)no2)s1` [Compound 265, N-(5-(methylthio)-1,3,4-thiadiazol-2-yl)-3-(phenylamino)-1,2,4-oxadiazole-5-carboxamide], the IC50 fell in the range of 500 to 1000 nM.

With `CC(C)c1cc(C(=O)Nc2nnc(-c3ccccc3Cl)s2)on1` [Compound 40, N-(5-(2-chlorophenyl)-1,3,4-thiadiazol-2-yl)-3-isopropylisoxazole-5-carboxamide], the IC50 lay within 100 to 500 nM.

With `CSc1nnc(NC(=O)c2cc3ccccc3c(=O)o2)s1` [Compound 207, N-(5-(methylthio)-1,3,4-thiadiazol-2-yl)-1-oxo-1H-isochromene-3-carboxamide], the 50% inhibitory concentration (IC50) is not below 1000 nM.
